These results are taken from patent US10765675B2, “Compositions and methods for treating Ewing family tumors” (priority 2015, dated 2020).

One data set relates to TC-32 cells. In words: cells. The note with it: Homo sapiens, TC-32, 24 h, read-out: EC50 (concentration of drug that inhibits growth of the tumor cells by 50% as compared to vehicle-treated control). The text has this: (§1) The combination index (CI) accounts for the dose response of single drugs to determine the combination effect. […] Enzyme Regul. 22:27-55. The equation for calculating CI is as follows: […]

Another data set concerns TC-71 cells. Description: cells. As to conditions: Homo sapiens, TC-71, 24 h, read-out: EC50 (concentration of drug that inhibits growth of the tumor cells by 50% as compared to vehicle-treated control).
From the text: as §1

In another data set the test system is MB231-Bo cancer cells. The note with it: same doses as tested on TC-32 and TC-71 cells.
Another data set deals with 3T3 fibroblast cells. As to conditions: same doses as tested on TC-32 and TC-71 cells.
For data set [1] the following is noted: metformin 500-1000 mg/day; cited from earlier work.
Data set [2] relates to DNA damage and DNA repair pathway genes in TC-32 cells. As to conditions: 12 h.
From the text: (§2) Housekeeping genes were included on the array to normalize RNA amounts.
The test system of data set [3] is DNA damage and DNA repair pathway genes in TC-71 cells. The note with it: 12 h.
From the text: as §2
The test system of a further data set is sarcomas. As to conditions: cited from earlier work.

pEC50: −log10 of the molar value. Where a name gives a salt, the structure may show the parent alone.

Method for 3T3 fibroblast cells: (§3) The TC-32 cell line was derived from a newly diagnosed PNET patient and the TC-71 cell line was derived from a tumor recurrent after chemotherapy in a Ewing's sarcoma patient.
(§4) The cells were cultured in DMEM media supplemented with 10% FBS, 1% L-glutamate, 1% sodium pyruvate, 1% penicillin/streptomycin, and 1% non-essential amino acids in a humidified atmosphere at 37° C. and in 5% CO2. The ratio of cells to well surface and media volume was kept constant in all experiments.
(§5) Treated cells were imaged with an IVIS200 system (Xenogen Corporation, Alameda, Calif.) using the bioluminescent imaging function. An average of three kinetic bioluminescent acquisitions was obtained within 5 min Regions of interest were automatically drawn over wells and quantified with Living Image Software version 2.50.1. Data was analyzed based on total photon flux emission minus the background photon flux of blank wells. Three separate experiments were performed, with six replicate wells for each data point.
Method for MB231-Bo cancer cells: as §3, §4, §5

`CN(C)C(=N)N=C(N)N` [metformin, Metformin hydrochloride]: the figures for the pEC50 in the data set on TC-32 cells and with TC-71 cells were 1.93 and 1.94, respectively. The Cytotoxicity entry in the data set with MB231-Bo cancer cells and in the data set with 3T3 fibroblast cells was “did not show any cytotoxicity” throughout. Moreover, the Plasma levels result in data set [1] was “about 1.1 mg/L”. The “Plasma levels, molar equivalent” value in data set [1] was 7 µM.

As for `Cc1ccc(NC(=O)c2ccc(CN3CCN(C)CC3)cc2)cc1Nc1nccc(-c2cccnc2)n1` [imatinib, imatinib mesylate], the Cytotoxicity entry in the data set with MB231-Bo cancer cells and with 3T3 fibroblast cells was “did not show any cytotoxicity” in each case. The “Expression of 9 DNA repair genes (PRKDC, LIG4, MPG, ACTB, NEIL2, MLH1, RPA3, ATXN3, ERCC5)” value in data set [2] is reported as “significantly up-regulated”. The “Expression of 11 DNA repair genes (MMS19, LIG4, B2M, RFC1, PARP2, BRCA2, TREX1, XPC, RAD23A, MUTYH, APEX1)” value in data set [3] is on record as “significantly up-regulated”.

For the compound `COc1cccc2c1C(=O)c1c(O)c3c(c(O)c1C2=O)C[C@@](O)(C(=O)CO)C[C@@H]3O[C@H]1C[C@H](N)[C@H](O)[C@H](C)O1` [doxorubicin], in the data set on sarcomas (clinical use), the “Side-effects limiting clinical utility” value is recorded as “irreversible cardiac toxicity”. Also, the “Share of sarcomas that respond to the drug” value in the data set with sarcomas (standard systemic therapy) is reported as 20%.
